Values after ≈ are worked out from the molar mass of the structure shown.
What was measured:
A549 = experiment: In vitro tumor cell cytotoxicity, three day MTT microtiter assay (A549); assay type: cell-based, human; conditions: Homo sapiens, A549, 72 h, read-out: In vitro tumor cell cytotoxicity (IC50)
Description: (§1) A three day microtiter assay was used to measure the growth inhibition of cultured cells exposed to a range of drug concentrations. Metabolic activity was measured by the cells' ability to reduce the tetrazolium dye, MTT (3-(4,5-dimethylthiazol-2-yl-2,5-diphenyltetrazolium bromide) to a quantifiable colored end product, which absorbs at 570 nm in the visible spectrum. Surviving cells reduce the MTT dye.
(§2) Test compounds were dissolved in dimethyl sulfoxide (DMSO) and diluted, first with Earle's Balanced Salt Solution, followed by culture medium, to twice the highest concentration of compound to be tested. From this concentrated stock, two-fold serial dilutions were prepared in 96-well microtiter trays, each well containing twice the desired final concentration of compound. Each concentration was tested in triplicate and compared to triplicate drug-free controls.
(§3) The cells were grown in the same medium used for diluting the compounds and then harvested using trypsinization. This involved removing the medium by aspiration; rinsing the cell monolayer twice with Earle's Balanced Salt Solution; adding trypsin (0.05%)/EDTA (0.53 mM; for each 25 cm^2, approximately 0.2 mL), tilting to cover the monolayer, and then withdrawing trypsin leaving only a thin film of solution; incubating at room temperature until the cell monolayers detached (as determined by visual and/or microscopic observation); adding medium contaiing fetal calf serum to stop the action of the trypsin and resuspend the cells; triturating to aid dissociation of cell clumps; and determining the number of cells per milliliter by electronic cell counter (e.g. Coulter Counter) or by mixing an aliquot of cell suspension with Trypan Blue (0.4% in normal saline) and counting the viable cells using a hemacytometer.
(§4) After harvesting and determination of viable cell counts, cell density was adjusted to 25,000 cells/mL. Inoculum (0.1 mL) containing the cells was then added to each well for a final concentration of 2,500 cells per well. Addition of the inoculum diluted the test compounds to the desired final concentration.
(§5) Microtiter trays were then incubated for three days at 36° C. in a humidified atmosphere containing 5% carbon dioxide. After three days, 20 microtiters of 5 mg/mL MTT in phosphate-buffered saline solution were added to each well. Trays were returned to the incubator for two to four hours to allow the surviving cells to reduce the dye. Medium and unreduced dye were removed by aspiration. DMSO was added to each well to dissolve the water-insoluble, colored end product of the dye reduction so that it could be measured spectrophotometrically at 570 nm.

P-388 = experiment: In vitro tumor cell cytotoxicity, three day MTT microtiter assay (P-388); assay type: cell-based, mouse; conditions: Mus musculus, P388, 72 h, read-out: In vitro tumor cell cytotoxicity (IC50)
Description: as §1, §2, §3, §4, §5

[1] = test system: advanced breast and ovarian cancers; conditions: cited from earlier work
other tumor types = conditions: preliminary investigations; cited from earlier work

Structure (SMILES)	IC50 (A549)	IC50 (P-388)	effectiveness in clinical trials [1]	activity against other tumor types (other tumor types)
CC(=O)O[C@@H]1C2=C(C)[C@@H](OC(=O)[C@H](O)[C@@H](NC(=O)NC(C)(C)C)c3ccccc3)C[C@@](O)([C@@H](OC(=O)c3ccccc3)[C@@H]3[C@]4(OC(C)=O)CO[C@@H]4C[C@H](O)[C@@]3(C)[C@H]1O)C2(C)C [Example 30, N-Debenzoyl-N-t-butylcarbamyl-9-dihydrotaxol]	0.014 µg/mL (≈ 0.0165 µM)	0.017 µg/mL (≈ 0.02 µM)	–	–
CC(=O)O[C@H]1C(=O)[C@@]2(C)[C@H]([C@H](OC(=O)c3ccccc3)[C@]3(O)C[C@H](OC(=O)[C@H](O)[C@@H](NC(=O)c4ccccc4)c4ccccc4)C(C)=C1C3(C)C)[C@]1(OC(C)=O)CO[C@@H]1C[C@@H]2O [Taxol]	–	–	effective against advanced breast and ovarian cancers in clinical trials	promising activity against a number of other tumor types

From patent US5594157A, “Process for making taxol derivatives” (Abbott Laboratories, priority 1995, dated 1997)
